Reference: patent publication US20260176249A1, “PROTEIN KINASE INHIBITOR, PREPARATION METHOD THEREFOR, AND APPLICATION THEREOF” (SHANDONG LUYE PHARMACEUTICAL CO., LTD., priority 2021, published 2026)
Read-outs that look alike come from different tables or passages of the source.

Legend:
PLK1 kinase = biological target: T1, PLK1 kinase (Homo sapiens, UniProt P53350); assay: Inhibitory activity on PLK1 kinase; assay type: biochemical; conditions: for IC50: PLK1 kinase, highest concentration 1 μM, 10 points, read-out: IC50; for Imax: maximum effect caused by the compound at the test concentration
T1 construct: purchased Carnabio (Carna Biosciences) 05-157
T1 sequence (P53350 whole entry): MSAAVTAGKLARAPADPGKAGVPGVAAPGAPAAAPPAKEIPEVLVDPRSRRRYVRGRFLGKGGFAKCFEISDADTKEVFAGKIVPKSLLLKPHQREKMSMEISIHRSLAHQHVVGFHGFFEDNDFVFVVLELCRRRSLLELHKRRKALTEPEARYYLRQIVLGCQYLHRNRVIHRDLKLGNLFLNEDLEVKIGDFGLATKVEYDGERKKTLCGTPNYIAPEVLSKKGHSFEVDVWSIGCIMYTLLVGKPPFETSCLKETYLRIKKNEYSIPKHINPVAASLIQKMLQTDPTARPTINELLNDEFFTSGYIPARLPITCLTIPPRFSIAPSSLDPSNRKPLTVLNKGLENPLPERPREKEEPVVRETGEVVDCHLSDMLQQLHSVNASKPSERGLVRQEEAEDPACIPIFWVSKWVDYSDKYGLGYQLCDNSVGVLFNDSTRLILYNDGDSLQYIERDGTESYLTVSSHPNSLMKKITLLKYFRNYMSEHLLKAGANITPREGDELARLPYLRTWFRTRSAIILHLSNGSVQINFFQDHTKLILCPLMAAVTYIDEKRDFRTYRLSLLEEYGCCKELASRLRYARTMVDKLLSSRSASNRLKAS
Description: Detection solution PerkinElmer #TRF0218-M
Detection instrument PerkinElemer EnVision
a. Using the Echo machine, the compounds to be tested were diluted by 1:3 on a 384-well plate, and the highest concentration was 1 μM, with a total of 10 concentration points, and each concentration was tested in duplicate wells.
b. 5 μL/well of PLK1 kinase and peptide substrate mixture were added to the assay plate (containing controls).
d. The reaction was initiated by adding 5 μL/well of ATP solution;
e. The assay plate was centrifuged at 1000 rpm for about 15 seconds, a film was used to seal the assay plate which was incubated at 23° C. for a period of time;
f. A detection solution was added to all wells of the assay plate;
g. The assay plate was centrifuged at 1000 rpm for approximately 15 seconds, a film was used to seal the assay plate which was incubated at 23° C. for 60 min.
h. The assay plate was read on EnVision. The test results were analyzed using XLFIT5 software.

[1] = Permeability and efflux transporter substrate evaluation in Caco-2 cells; assay type: in vitro ADME; parameters: Papp A→B at 120 min / Papp B→A at 120 min / efflux ratio at 120 min / Papp at 120 min: dose or concentration left out as unconfirmed; conditions: human; for efflux ratio at 120 min / Papp at 120 min: Caco-2, pH 7.4; for Papp at 120 min: read-out: Classification Permeability; for Papp A→B at 120 min / Papp B→A at 120 min: pH 7.4, pH 7.40; for Papp A→B at 120 min: Caco-2, apical to basolateral; for Papp B→A at 120 min: Caco-2, basolateral to apical
Description: (§1) The cells were cultured in a carbon dioxide incubator for 21-28 days before being used for transport experiments. During this period, the culture medium was changed every four to five days.
(§2) This project uses Hank's balanced salt buffer (pH 7.40±0.05) containing 10 mM HEPES as the transport buffer. The culture medium was removed from the culture plate and the cells were washed twice with preheated transport buffer (approximately 75 μL and 40 mL of transport buffer for each apical well and basolateral receiver plate respectively). The donor solution and receiver solution were added to the corresponding cell plate wells (75 and 250 μL for each apical and basolateral well respectively), and the bidirectional transport experiment was started (apical to basolateral (A-B) and basolateral to apical (B-A)). The test concentration of the test substance was […], and two replicate wells were made for each dosing concentration. The test concentration of Digoxin was […], with dosing bidirectionally; the test concentrations of nadolol and metoprolol were both […], and they were dosed in one direction (A-B direction), and two replicate wells were made for each of the three control compounds.
(§3) The initial donor solution is the TO sample. After adding the sample, it was mixed with the transport buffer and stop solution in a certain proportion.
(§4) All samples were vortexed, and then centrifuged at 3220×g for 20 min at 20° C. A proper volume of supernatant was transferred to a sample assay plate, and the sample was stored at 2-8° C. if it was not analyzed immediately after the plate was sealed, and LC MS/MS method was used for analysis.
(§5) The Lucifer Yellow Rejection Assay was used to test the integrity of the Caco-2 cell layer.
(§6) The following formulas were used to calculate the apparent permeability coefficient (Papp, cm/s), efflux ratio (ER), and solution recovery (%) (% Solution Recovery).
(§7) [formula] [formula] [formula] • VR is the volume of the receiver side solution (side A is 0.075 mL, side B is 0.25 mL); Area is the relative surface area of the cell monolayer (0.0804 cm^2); Time is the incubation time (7200 s); C0 is the initial concentration (nM) of the test substance at the donor side or the peak area ratio of the control compound; VD is the volume of the donor side (side A is 0.075 mL, side B is 0.25 mL); CD and CR are the final concentration (nM) of the test substance at the donor side and the receiver side respectively or the peak area ratio of the control compound; • Lucifer yellow transmittance rate (% Lucifer Yellow) is calculated using the following formula:
(§8) [formula] • RFUApical and RFUBasolateral are the relative fluorescence intensity of lucifer yellow at the apical and basolateral sides respectively. VApical and VBasolateral are the sample loading volumes at the apical and basolateral sides respectively (0.075 and 0.25 mL respectively).

Caco-2 cells = assay: as above; assay type: in vitro ADME; parameters: Papp A→B at 120 min / Papp B→A at 120 min / efflux ratio at 120 min / Papp at 120 min: dose or concentration left out as unconfirmed; conditions: Caco-2
Description: as §1, §2, §3, §4, §5, §6, §7, §8

[2] = Metabolic stability in rat liver microsomes; assay type: in vitro ADME; conditions: for CLint scaled at 1 µM / half-life at 1 µM / microsomal CLint at 1 µM: rat; for CLint scaled at 1 µM / half-life at 1 µM: pH 7.4; for microsomal CLint at 1 µM: pH 7.4, read-out: CLint(mic)
Description: (§9) a. Preparation of phosphate buffer: The phosphate buffer powder was dissolved in 100 mL of pure water to prepare a phosphate buffer solution with a pH of 7.4 and a concentration of 100 mM, which was stored in a 4° C. refrigerator for later use.
(§10) b. All samples as well as the reference testosterone were dissolved in DMSO to obtain a 10 mM stock solution. The 10 mM stock solution was diluted to 100 μM with acetonitrile to obtain a working solution for later use.
(§11) c. Preparation of liver microsome working solution: Each of the mouse, rat and human liver microsome stock solutions (at concentration of 20 mg/mL) was taken and diluted to 0.56 mg/mL with 100 mM phosphate buffer solution to obtain the liver microsome working solution.
(§12) d. Preparation of solution: An appropriate amount of MgCl2 was weighed and used to prepare a MgCl2 solution at a concentration of 60 mM using 100 mM phosphate buffer solution. An appropriate amount of NADPH was weighed and used to prepare a NADPH solution at a concentration of 20 mM using 100 mM phosphate buffer solution. An equal volume of 60 mM MgCl2 solution was added to prepare an NADPH working solution containing 10 mM NADPH and 30 mM MgCl2. An acetonitrile solution containing 20 ng/mL tolbutamide was prepared as the stop solution.
(§13) e. Liver microsome incubation: 2 μL of each compound and the positive drug testosterone working solution were added to 178 μL of liver microsome working solution (0.56 mg/mL), mixed gently, and pre-incubated in a vibrating constant temperature water bath pot at 37° C. for 10 min. After adding 20 μL of NADPH working solution, the mixture was placed in a vibrating constant temperature water bath pot at 37° C. and timed incubation was started for 5, 10, 20, 30 and 60 min.
(§14) f. Stopping reaction: After the corresponding time of incubation, 400 μL of stop solution was added to stop the reaction, and then the sample was immediately shaken for 1 min. The sample was centrifuged at 13500 rpm for 10 min at 10° C. After centrifugation, the supernatant was removed, diluted with water according to the needs of each compound, and analyzed by LC-MS. For the 0-minute sample, the stop solution was first added and mixed evenly with the liver microsomes, and then the NADPH working solution was added. For the negative control sample, 20 μL of 30 mM MgCl2 solution was added instead of the NADPH working solution.
(§15) T1/2 and CLint(mic) were calculated by the following formula.
(§16) [formula] [formula] • CLint(mic)=0.693/T1/2/liver microsomal protein concentration during incubation (mg/mL) • CLint(ver)=CLint(mic)*liver microsomal protein (mg)/liver weight (g)*liver weight to body weight ratio
(§17) Liver microsomal protein (mg)/liver weight (g): the value is 45 in both animal and human species.
(§18) Liver weight to body weight ratio: the parameters for mice, rats and humans are 88, 40 and 20 g/kg respectively.

[3] = Metabolic stability in human liver microsomes; assay type: in vitro ADME; conditions: for CLint scaled at 1 µM / half-life at 1 µM / microsomal CLint at 1 µM: human; for CLint scaled at 1 µM / half-life at 1 µM: pH 7.4; for microsomal CLint at 1 µM: pH 7.4, read-out: CLint(mic)
Description: as §9, §10, §11, §12, §13, §14, §15, §16, §17, §18

[4] = Metabolic stability in mouse liver microsomes; assay type: in vitro ADME; conditions: for CLint scaled at 1 µM / half-life at 1 µM / microsomal CLint at 1 µM: mouse; for CLint scaled at 1 µM / half-life at 1 µM: pH 7.4; for microsomal CLint at 1 µM: pH 7.4, read-out: CLint(mic)
Description: as §9, §10, §11, §12, §13, §14, §15, §16, §17, §18

HCT116 cells = assay: Inhibitory activity on HCT116 cell proliferation (ATPlite); assay type: cell-based; conditions: Homo sapiens
Description: Cell culture medium: RPMI1640+10% FBS (GBICO)
Cell culture plate: 96-well plate (Shanghai Jingan Biotechnology Co., Ltd.)
Detection kit: ATPlite 1step Luminescence (PerkinElmer)
Detection instrument: BioTek multifunctional microplate reader
2. Test method: HCT116 cells in the logarithmic growth phase were seeded into a white-wall clear-bottom 96-well plate at a density of 720 cells per well, and cultured overnight in a 37° C., 5% CO2 incubator. […] After adding the drug, culturing was continued for 72 h in a 37° C., 5% CO2 incubator.
GraphPad Prism 7.0 was used to process the data, the cell inhibition rate curve was obtained and IC50 was calculated.

[5] = HCT-116, HCT116 cells, 72 h, read-out: IC50

Row | Structure (SMILES) | IC50 (PLK1 kinase) [nM] | Imax (PLK1 kinase) [%] | efflux ratio at 120 min [1] | Papp at 120 min [1] [×10⁻⁶ cm/s] | Papp A→B at 120 min [1] [×10⁻⁶ cm/s] | Papp B→A at 120 min [1] [×10⁻⁶ cm/s] | Classification Efflux transporter substrate (Caco-2 cells) | 60 min remaining amount [2] [%] | Clearance rate [2] | CLint scaled at 1 µM [2] [mL/min/kg] | half-life at 1 µM [2] [min] | microsomal CLint at 1 µM [2] [µL/min/mg] | 60 min remaining amount [3] [%] | Clearance rate [3] | CLint scaled at 1 µM [3] [mL/min/kg] | half-life at 1 µM [3] [min] | microsomal CLint at 1 µM [3] [µL/min/mg] | 60 min remaining amount [4] [%] | Clearance rate [4] | IC50 (HCT116 cells; [5]) [nM] | also measured
1 | CCc1sc(C(N)=O)c2c1-c1nc(Nc3cc(N4CCN(C)CC4)ccc3OC(F)(F)F)ncc1CC2 [Compound 7] | 0.79 | 100.68 | 1.97 | < 0.5 | 0.275 | 0.542 | Very unlikely or not (ERa < 2.00) | 2.06 | High | 1090 | 2.3 | 603 | 14.1 | High | 60.7 | 20.6 | 67.4 | 2.92 | High |  | CLint scaled at 1 µM [4]: 940 mL/min/kg; half-life at 1 µM [4]: 5.84 min; microsomal CLint at 1 µM [4]: 237 µL/min/mg
2 | CN1CCN(c2ccc(OC(F)(F)F)c(Nc3ncc4c(n3)-c3c(c(C(=O)NO)nn3CCO)CC4)c2)CC1 [Compound 10] | 1.16 | 99.92 | > 51.7 | < 0.5 | < 0.48 | 24.8 | Likely (ERa ≥ 2.00) |  |  |  |  |  |  |  |  |  |  |  |  | 49 | IC50 (HCT116 cells; HCT-116, HCT116 cells, 72 h, read-out: half inhibitory concentration): 49 nM
3 | CN1CCN(c2ccc(OC(F)(F)F)c(Nc3ncc4c(n3)-c3c(c(C(=O)NNC(N)=O)nn3C)CC4)c2)CC1 [Compound 12] |  |  | > 56.7 | < 0.5 | < 0.264 | 15 | Likely (ERa ≥ 2.00) | 7.43 | High | 153 | 16.3 | 85 | 70.8 | Medium | 10.4 | 119 | 11.6 | 26.9 | Medium |  | IC50 (HCT116 cells; HCT-116, 72 h): 861 nM; CLint scaled at 1 µM [4]: 163 mL/min/kg; half-life at 1 µM [4]: 33.6 min; microsomal CLint at 1 µM [4]: 41.2 µL/min/mg
4 | CN1CCN(c2ccc(OC(F)(F)F)c(Nc3ncc4c(n3)-c3c(c(C(=O)NS(=O)(=O)C(F)(F)F)nn3CCO)CC4)c2)CC1 [Compound 8] | 14.7 | 95.96 | > 30.3 | < 0.5 | < 0.48 | 14.5 | Likely (ERa ≥ 2.00) |  |  |  |  |  |  |  |  |  |  |  |  | 3400 | 
5 | CN1CCN(c2ccc(OC(F)(F)F)c(Nc3ncc4c(n3)-c3c(c(C(=O)NOCCO)nn3C)CC4)c2)CC1 [Compound 11] | 1.8 | 99.65 | 22.1 | 0.5 to 2.5 | 1.13 | 25 | Likely (ERa ≥ 2.00) |  |  |  |  |  |  |  |  |  |  |  |  | 205 | 
6 | CN1CCN(c2ccc(OC(F)(F)F)c(Nc3ncc4c(n3)-c3c(c(C(=O)NS(=O)(=O)C5CC5)nn3CCO)CC4)c2)CC1 [Compound 9] | 327 | 72.68 | > 25.4 | < 0.5 | < 0.254 | 6.43 | Likely (ERa ≥ 2.00) |  |  |  |  |  |  |  |  |  |  |  |  | > 10000 | 
